Measured values from US12077503B2, “Substituted cyclic amides and their use as herbicides” (FMC CORPORATION, priority 2015, dated 2024).

Experiments:
Type in all cases: in vivo
[1] = tested on: barnyardgrass (Echinochloa crus-galli); experiment: Test G Pre-Emergence Protocol; conditions: Echinochloa crus-galli, pre-emergence, 312 h, evaluated after 13 days
In short: (§1)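 Scores are visual damage ratings from 0 (no damage) to 100 (total plant kill), taken 13 days after treatment. Compound was sprayed one day post-sowing at 15.625, 62.5 or 250 g/ha in 50:50 acetone/water with 0.5% Tween 20.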

corn (Zea mays) [2] = experiment: Test G Pre-Emergence Protocol; conditions: Zea mays, pre-emergence, 312 h, evaluated after 13 days
In short: as §1

[3] = tested on: giant foxtail (Setaria faberi); experiment: Test G Pre-Emergence Protocol; conditions: Setaria faberi, pre-emergence, 312 h, evaluated after 13 days
In short: as §1

[4] = tested on: ivy-leaved morning glory (Ipomoea hederacea); experiment: Test G Pre-Emergence Protocol; conditions: Ipomoea, pre-emergence, 312 h, evaluated after 13 days
In short: as §1

[5] = tested on: redroot pigweed (Amaranthus retroflexus); experiment: Test G Pre-Emergence Protocol; conditions: Amaranthus retroflexus, pre-emergence, 312 h, evaluated after 13 days
In short: as §1

[6] = tested on: velvetleaf (Abutilon theophrasti); experiment: Test G Pre-Emergence Protocol; conditions: Abutilon theophrasti, pre-emergence, 312 h, evaluated after 13 days
In short: as §1

[7] = tested on: barnyardgrass (Echinochloa crus-galli); experiment: Test G Post-Emergence Protocol; conditions: Echinochloa crus-galli, post-emergence, 312 h, read-out: Barnyardgrass damage rating
In short: (§2)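 Pot-grown seedlings, 8 days old, raised in a glasshouse at 24/16 °C day/night with 14 h light and 65% humidity, were sprayed post-emergence with test compound in acetone/water (50:50) plus 0.5% Tween 20 at 15.625, 62.5 or 250 g/ha. Damage was scored visually 13 days later on a 0–100 scale (100 = total damage).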

corn (Zea mays) [8] = experiment: Test G Post-Emergence Protocol; conditions: Zea mays, post-emergence, 312 h, read-out: Corn damage rating
In short: as §2

[9] = tested on: giant foxtail (Setaria faberi); experiment: Test G Post-Emergence Protocol; conditions: Setaria faberi, post-emergence, 312 h, read-out: Foxtail, Giant damage rating
In short: as §2

[10] = tested on: ivy-leaved morning glory (Ipomoea hederacea); experiment: Test G Post-Emergence Protocol; conditions: Ipomoea, post-emergence, 312 h, read-out: Morningglory, Ivy-leaved damage rating
In short: as §2

[11] = tested on: redroot pigweed (Amaranthus retroflexus); experiment: Test G Post-Emergence Protocol; conditions: Amaranthus retroflexus, post-emergence, 312 h, read-out: Pigweed, Redroot damage rating
In short: as §2

[12] = tested on: velvetleaf (Abutilon theophrasti); experiment: Test G Post-Emergence Protocol; conditions: Abutilon theophrasti, post-emergence, 312 h, read-out: Velvetleaf damage rating
In short: as §2

[13] = 15.625 g ai/ha, evaluated after 13 days (100=total damage to plant; 0=no damage to plant)
[14] = 62.5 g ai/ha, evaluated after 13 days, 100=total damage to plant, 0=no damage to plant
[15] = 250 g ai/ha, evaluated after 13 days, 100=total damage to plant, 0=no damage to plant

CN1C[C@@H](c2ccc(C(F)(F)F)cc2)[C@H](C(=O)Nc2cncc(F)n2)C1=O (racemic) [Compound 1657]
50%: pest or weed control at 250 g/ha ([5]; 250 g ai/ha, read-out: Pigweed, Redroot damage rating (100=total damage to plant; 0=no damage to plant))
20%: pest or weed control at 250 g/ha ([1]; 250 g ai/ha, read-out: Barnyardgrass damage rating (100=total damage to plant; 0=no damage to plant)) | pest or weed control at 62.5 g/ha ([5]; 62.5 g ai/ha, 100=total damage to plant, 0=no damage to plant, read-out: Pigweed, Redroot damage rating) | plant injury at 250 g/ha (corn (Zea mays) [8]; [15]) | pest or weed control at 62.5 g/ha [12, 14] | pest or weed control at 250 g/ha [12, 15]
40%: pest or weed control at 250 g/ha [7, 15] | pest or weed control at 62.5 g/ha [9, 14] | pest or weed control at 62.5 g/ha [11, 14]
70%: pest or weed control at 250 g/ha [9, 15]
60%: pest or weed control at 62.5 g/ha ([3]; 62.5 g ai/ha, 100=total damage to plant, 0=no damage to plant, read-out: Foxtail, Giant damage rating) | pest or weed control at 250 g/ha [11, 15]
0%: pest or weed control at 15.625 g/ha ([1]; 15.625 g ai/ha, read-out: Barnyardgrass damage rating (100=total damage to plant; 0=no damage to plant)) | plant injury at 15.625 g/ha (corn (Zea mays) [2]; 15.625 g ai/ha, read-out: Corn damage rating (100=total damage to plant; 0=no damage to plant)) | plant injury at 62.5 g/ha (corn (Zea mays) [2]; 62.5 g ai/ha, 100=total damage to plant, 0=no damage to plant, read-out: Corn damage rating) | plant injury at 250 g/ha (corn (Zea mays) [2]; 250 g ai/ha, read-out: Corn damage rating (100=total damage to plant; 0=no damage to plant)) | pest or weed control at 15.625 g/ha ([3]; 15.625 g ai/ha, read-out: Foxtail, Giant damage rating (100=total damage to plant; 0=no damage to plant)) | pest or weed control at 15.625 g/ha ([4]; 15.625 g ai/ha, read-out: Morningglory, Ivy-leaved damage rating (100=total damage to plant; 0=no damage to plant)) | pest or weed control at 62.5 g/ha ([4]; 62.5 g ai/ha, 100=total damage to plant, 0=no damage to plant, read-out: Morningglory, Ivy-leaved damage rating) | pest or weed control at 250 g/ha ([4]; 250 g ai/ha, read-out: Morningglory, Ivy-leaved damage rating (100=total damage to plant; 0=no damage to plant)) | pest or weed control at 15.625 g/ha ([5]; 15.625 g ai/ha, read-out: Pigweed, Redroot damage rating (100=total damage to plant; 0=no damage to plant)) | pest or weed control at 15.625 g/ha ([6]; 15.625 g ai/ha, read-out: Velvetleaf damage rating (100=total damage to plant; 0=no damage to plant)) | pest or weed control at 62.5 g/ha ([6]; 62.5 g ai/ha, 100=total damage to plant, 0=no damage to plant, read-out: Velvetleaf damage rating) | pest or weed control at 250 g/ha ([6]; 250 g ai/ha, read-out: Velvetleaf damage rating (100=total damage to plant; 0=no damage to plant)) | pest or weed control at 15.625 g/ha [7, 13] | plant injury at 15.625 g/ha (corn (Zea mays) [8]; [13]) | pest or weed control at 15.625 g/ha [9, 13] | pest or weed control at 15.625 g/ha [10, 13] | pest or weed control at 15.625 g/ha [11, 13] | pest or weed control at 15.625 g/ha [12, 13]
10%: pest or weed control at 62.5 g/ha ([1]; 62.5 g ai/ha, 100=total damage to plant, 0=no damage to plant, read-out: Barnyardgrass damage rating) | pest or weed control at 62.5 g/ha [7, 14] | plant injury at 62.5 g/ha (corn (Zea mays) [8]; [14]) | pest or weed control at 62.5 g/ha [10, 14]
30%: pest or weed control at 250 g/ha [10, 15]
80%: pest or weed control at 250 g/ha ([3]; 250 g ai/ha, read-out: Foxtail, Giant damage rating (100=total damage to plant; 0=no damage to plant))
